Tests used:
Human PKMYT1 = target: T1, Human PKMYT1 (Homo sapiens, UniProt Q99640); test: PKMYT1 biochemical ADP-Glo enzymatic assay; details: ADP-Glo; 15 nM PKMYT1 kinase domain, 500 µM ATP, 60 minutes at 26° C.; banded
T1 construct: Human PKMYT1 75-362 was cloned as a TEV cleavable 6xHis fusion; 6xHis (TEV cleavable) (cleaved yes); made in house; host or cells: bacterial cells
T1 sequence (Q99640 75-362): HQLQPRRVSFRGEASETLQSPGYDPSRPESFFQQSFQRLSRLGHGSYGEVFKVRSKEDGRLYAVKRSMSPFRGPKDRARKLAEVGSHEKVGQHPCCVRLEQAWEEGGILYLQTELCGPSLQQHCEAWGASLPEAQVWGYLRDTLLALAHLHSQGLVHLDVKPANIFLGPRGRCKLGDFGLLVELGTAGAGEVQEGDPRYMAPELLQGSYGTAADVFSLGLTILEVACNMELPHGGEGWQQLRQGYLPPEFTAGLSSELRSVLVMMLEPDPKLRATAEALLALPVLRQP
Summary of the method: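 PKMYT1 75-362 (His-cleaved, bacterial) 15 nM; ATP 500 µM; HEPES pH 7.5, MgCl2, EGTA, Brij-35, 1% DMSO; 60 min, 26 °C; ADP-Glo Max luminescence; 10-pt 3-fold titration → IC50; replicates within 3-fold, r2 >0.9.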

WEE1 = target: T2, WEE1 (Homo sapiens, UniProt P30291); test: Selectivity versus WEE1 assay (ADP-Glo enzymatic assay); type: biochemical; details: banded; for IC50: ADP-Glo, 15 nM WEE1, 60 minutes at 26° C.; for PKMYT1 vs. WEE1 selectivity: fold difference in selectivity for PKMYT1 over WEE1, ">N" = at least in this band but could be higher
T2 construct: purchased Thermo Fisher PR7373A
Summary of the method: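 15 nM WEE1, 30 µM ATP, 50 mM HEPES pH 7.5, 10 mM MgCl2, 1 mM EGTA, 0.01% Brij-35, 1% DMSO; 60 min, 26° C; ADP-Glo luminescence; IC50 from curve fit, replicates within 3-fold, r2 >0.9.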

OVCAR 3 cells = test: Cancer cell line proliferation assay, ATP-based cell viability (Cell Titre Glow), OVCAR 3 (CCNE1-amplified); details: KYSE30 (normal CCNE1) GI50 vs. OVCAR 3 (CCNE1-amplified) GI50
Summary of the method: (§1)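 GI50 values, the concentrations halving cell growth, were derived from ATP-based luminescence (Cell Titre Glo) after PKMYT1 inhibitor exposure. Cells tested were OVCAR 3, an ovarian line with amplified CCNE1, and KYSE-30, which has normal CCNE1.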

KYSE-30 cells = test: Cancer cell line proliferation assay, ATP-based cell viability (Cell Titre Glow), KYSE-30 (normal CCNE1); details: Homo sapiens, KYSE-30 cells (normal CCNE1), concentration that achieves 50% cell growth proliferation inhibition, read-out: KYSE30 Gl50
Summary of the method: as §1

[1] = target: T3, Cellular PKMYT1 Biomarker CDK1 pT14 (Homo sapiens, UniProt Q99640); test: Inhibition of cellular PKMYT1 biomarker CDK1 pT14 in OVCAR 3 cells (immunoblot); type: cell-based; details: 20 hours incubation
T3 construct: read-out CDK1 phospho-T14 immunoblot
T3 sequence (Q99640 1-499): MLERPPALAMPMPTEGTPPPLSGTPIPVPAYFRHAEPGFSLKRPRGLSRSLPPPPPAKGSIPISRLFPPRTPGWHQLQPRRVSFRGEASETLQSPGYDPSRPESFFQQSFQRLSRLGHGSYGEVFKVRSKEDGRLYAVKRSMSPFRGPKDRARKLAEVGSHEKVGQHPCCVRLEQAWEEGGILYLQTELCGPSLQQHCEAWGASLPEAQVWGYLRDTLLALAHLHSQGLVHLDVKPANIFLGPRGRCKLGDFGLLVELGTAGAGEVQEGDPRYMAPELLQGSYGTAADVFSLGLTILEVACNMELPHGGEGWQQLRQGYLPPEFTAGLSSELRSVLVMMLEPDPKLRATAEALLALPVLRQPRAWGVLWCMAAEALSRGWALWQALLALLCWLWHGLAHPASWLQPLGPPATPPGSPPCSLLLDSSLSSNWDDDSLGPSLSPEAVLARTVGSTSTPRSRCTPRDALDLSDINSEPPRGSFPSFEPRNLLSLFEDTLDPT
Summary of the method: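 Confluent OVCAR 3 cells treated with a compound concentration range for 20 h at 37 °C. Lysates analysed by automated capillary immunoblot for CDK1 phospho-T14, with vinculin, fluorescence detection; IC50 by regression.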

T2 sequence (P30291 whole entry): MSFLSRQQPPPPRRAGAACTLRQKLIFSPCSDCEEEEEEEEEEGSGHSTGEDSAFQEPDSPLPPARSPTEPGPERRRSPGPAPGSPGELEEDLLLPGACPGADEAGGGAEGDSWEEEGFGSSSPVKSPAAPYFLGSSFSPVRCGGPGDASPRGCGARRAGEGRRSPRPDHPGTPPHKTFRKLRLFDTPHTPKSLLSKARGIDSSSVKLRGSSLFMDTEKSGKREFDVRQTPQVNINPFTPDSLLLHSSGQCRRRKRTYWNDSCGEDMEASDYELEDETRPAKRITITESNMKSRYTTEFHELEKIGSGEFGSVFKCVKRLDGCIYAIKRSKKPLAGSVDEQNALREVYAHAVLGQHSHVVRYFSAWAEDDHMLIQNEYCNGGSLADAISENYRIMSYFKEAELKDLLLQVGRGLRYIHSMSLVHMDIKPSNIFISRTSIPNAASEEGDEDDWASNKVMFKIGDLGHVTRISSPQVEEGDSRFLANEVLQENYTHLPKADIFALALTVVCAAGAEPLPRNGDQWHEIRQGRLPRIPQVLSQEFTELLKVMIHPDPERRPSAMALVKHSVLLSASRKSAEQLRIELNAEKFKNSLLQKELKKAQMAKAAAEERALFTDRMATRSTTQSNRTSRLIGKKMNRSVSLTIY

SMILES	IC50 (Human PKMYT1)	IC50 (WEE1)	PKMYT1 vs. WEE1 selectivity (WEE1)	IC50 [1]	Selectivity ratio KYSE30 Gl50 vs. OVCAR3 Gl50 (OVCAR 3 cells)	GI50 (KYSE-30 cells)
Cc1ccc(O)c(C)c1NC(=O)c1cnc(Nc2cccc(-c3ccc(C(F)(F)F)cc3)n2)s1 [BAA-316, N-(3-hydroxy-2,6-dimethylphenyl)-2-((6-(4-(trifluoromethyl)phenyl)pyridin-2-yl)amino)thiazole-5-carboxamide]	0.05 to 1 µM	> 11 µM	Y (1000-5000 fold)	0.1 to 1 µM	Y (>20 fold)	0.5 to 5 µM
COc1cc(-c2cccc(Nc3ncc(C(=O)Nc4c(C)ccc(O)c4C)s3)n2)cc(OC)c1OC [BAA-317, N-(3-hydroxy-2,6-dimethylphenyl)-2-((6-(3,4,5-trimethoxyphenyl)pyridin-2-yl)amino)thiazole-5-carboxamide]	< 0.05 µM	> 11 µM	Y (1000-5000 fold)	< 0.1 µM	Y (>20 fold)	0.5 to 5 µM
Cc1ccc(O)c(C)c1NC(=O)c1cnc(Nc2cccc(NC(=O)c3ccc(F)cc3)n2)s1 [BAA-320, 2-((6-(4-fluorobenzamido)pyridin-2-yl)amino)-N-(3-hydroxy-2,6-dimethylphenyl)thiazole-5-carboxamide]	< 0.05 µM	> 11 µM	Y (1000-5000 fold)	< 0.1 µM	Y (>20 fold)	0.5 to 5 µM
Cc1ccc(O)c(C)c1NC(=O)c1cnc(Nc2cc(C(F)(F)F)cc(Cl)n2)s1 [BAA-321, 2-((6-chloro-4-(trifluoromethyl)pyridin-2-yl)amino)-N-(3-hydroxy-2,6-dimethylphenyl)thiazole-5-carboxamide]	0.05 to 1 µM	> 11 µM	X (100-<1000 fold)	0.1 to 1 µM	Y (>20 fold)	> 5 µM
Cc1ccc(O)c(C)c1NC(=O)c1cnc(Nc2cc(C(F)(F)F)nc(N3CCOCC3)n2)s1 [BAA-326, N-(3-hydroxy-2,6-dimethylphenyl)-2-((2-morpholino-6-(trifluoromethyl)pyrimidin-4-yl)amino)thiazole-5-carboxamide]	0.05 to 1 µM	> 11 µM	X (100-<1000 fold)	< 0.1 µM	Y (>20 fold)	0.5 to 5 µM
Cc1ccc(O)c(C)c1NC(=O)c1cnc(Nc2cccc(N3CCC(NC(=O)OC(C)(C)C)CC3)n2)s1 [BAA-327, tert-butyl(1-(6-((5-((3-hydroxy-2,6-dimethylphenyl)carbamoyl)thiazol-2-yl)amino)pyridin-2-yl)piperidin-4-yl)carbamate]	0.05 to 1 µM	> 11 µM	X (100-<1000 fold)	0.1 to 1 µM	Y (>20 fold)	0.5 to 5 µM
Cc1ccc(NC(=O)c2ccc(C(F)(F)F)cc2)nc1Nc1ncc(C(=O)Nc2c(C)ccc(O)c2C)s1 [BAA-328, N-(3-Hydroxy-2,6-dimethylphenyl)-2-((3-methyl-6-(4-(trifluoromethyl)benzamido)pyridin-2-yl)amino)thiazole-5-carboxamide]	0.05 to 1 µM	> 11 µM	X (100-<1000 fold)	< 0.1 µM	Y (>20 fold)	> 5 µM
Cc1ccc(NC(=O)C2CCOCC2)nc1Nc1ncc(C(=O)Nc2c(C)ccc(O)c2C)s1.Cl [BAA-331, N-(3-hydroxy-2,6-dimethylphenyl)-2-((3-methyl-6-(tetrahydro-2H-pyran-4-carboxamido)pyridin-2-yl)amino)thiazole-5-carboxamide hydrochloride]	< 0.05 µM	> 11 µM	Y (1000-5000 fold)	< 0.1 µM	Y (>20 fold)	0.5 to 5 µM
Cc1ccc(N)nc1Nc1ncc(C(=O)Nc2c(C)ccc(O)c2C)s1 [BAA-337, 2-((6-amino-3-methylpyridin-2-yl)amino)-N-(3-hydroxy-2,6-dimethylphenyl)thiazole-5-carboxamide]	< 0.05 µM	1 to 11 µM	X (100-<1000 fold)	< 0.1 µM	Y (>20 fold)	0.5 to 5 µM

Now from value to compound, other results behind:

IC50 (Human PKMYT1)	IC50 (WEE1)	PKMYT1 vs. WEE1 selectivity (WEE1)	IC50 [1]	SMILES	Selectivity ratio KYSE30 Gl50 vs. OVCAR3 Gl50 (OVCAR 3 cells)	GI50 (KYSE-30 cells)
< 0.05 µM	> 11 µM	Y (1000-5000 fold)	< 0.1 µM	Cc1cc(Nc2ncc(C(=O)Nc3c(C)ccc(O)c3C)s2)nc(OCC(F)(F)F)n1 [BAA-319, N-(3-hydroxy-2,6-dimethylphenyl)-2-((6-methyl-2-(2,2,2-trifluoroethoxy)pyrimidin-4-yl)amino)thiazole-5-carboxamide]	Y (>20 fold)	0.5 to 5 µM
< 0.05 µM	> 11 µM	Y (1000-5000 fold)	< 0.1 µM	Cc1ccc(NC(=O)C(C)(C)C)nc1Nc1ncc(C(=O)Nc2c(C)ccc(O)c2C)s1 [BAA-323, N-(3-hydroxy-2,6-dimethylphenyl)-2-((3-methyl-6-pivalamidopyridin-2-yl)amino)thiazole-5-carboxamide]	Y (>20 fold)	0.5 to 5 µM
0.05 to 1 µM	> 11 µM	Y (1000-5000 fold)	< 0.1 µM	Cc1ccc(O)c(C)c1NC(=O)c1cnc(Nc2cccc(N(C)C(=O)c3c(F)cc(F)cc3F)n2)s1 [BAA-325, N-(3-hydroxy-2,6-dimethylphenyl)-2-((6-(2,4,6-trifluoro-N-methylbenzamido)pyridin-2-yl)amino)thiazole-5-carboxamide]	X (3-20 fold)	> 5 µM
< 0.05 µM	> 11 µM	X (100-<1000 fold)	< 0.1 µM	Cc1ccc(NC(=O)C(C)C)nc1Nc1ncc(C(=O)Nc2c(C)ccc(O)c2C)s1.Cl [BAA-332, N-(3-hydroxy-2,6-dimethylphenyl)-2-((6-isobutyramido-3-methylpyridin-2-yl)amino)thiazole-5-carboxamide hydrochloride]	Y (>20 fold)	0.5 to 5 µM
0.05 to 1 µM	> 11 µM	Y (1000-5000 fold)	< 0.1 µM	Cc1ccc(O)c(C)c1NC(=O)c1cnc(Nc2nc(NC(=O)C(C)(C)C)ccc2Cl)s1.Cl [BAA-333, 2-((3-chloro-6-pivalamidopyridin-2-yl)amino)-N-(3-hydroxy-2,6-dimethylphenyl)thiazole-5-carboxamide hydrochloride]	Y (>20 fold)	> 5 µM
0.05 to 1 µM	> 11 µM	X (100-<1000 fold)	< 0.1 µM	Cc1ccc(O)c(C)c1NC(=O)c1cnc(Nc2cc(Cl)cc(NC(=O)C(C)(C)C)n2)s1.Cl [BAA-334, 2-((4-chloro-6-pivalamidopyridin-2-yl)amino)-N-(3-hydroxy-2,6-dimethylphenyl)thiazole-5-carboxamide hydrochloride]	Y (>20 fold)	0.5 to 5 µM

From US20260297042A1, “BIARYLAMIDE DERIVATIVES AND THEIR USE AS PKMYT1 INHIBITORS” (CANCER RESEARCH TECHNOLOGY LIMITED, priority 2023, published 2026)
